Test results taken from US9969972B2, “Pluripotent stem cell culture on micro-carriers” (Janssen Biotech, Inc., priority 2008, dated 2018).

Tests used:
H9 cells [1] = assay: Rho kinase inhibitor concentration for attachment and growth of H9 cells on micro-carriers; format: cell-based, human; conditions: H9 passage 44, MEF-CM, rocking platform
Protocol: A starting aliquot of 13,333 cells/cm^2 H9 cells at passage 44 was seeded onto 15 cm^2 of micro-carriers in a single well of a 12 well non-tissue culture treated plate. The cells were placed at 37° C. for at least 60 minutes before placing them onto a rocking platform at 37° C. Prior to adding the cells, HILLEX®II (Solohill, MI) and Cytodex 3® (GE Healthcare Life Sciences, NJ) micro-carriers were prepared as directed by the manufacturer. Cells were grown in MEF-CM plus a range of Rho kinase inhibitor concentrations, Y27632 at 10, 5, 2.5 or 1 μM, or (S)-(+)-4-Glycyl-2-methyl-1-[(4-methyl-5-isoquinolinyl)sulfonyl]-hexahydro-1H-1,4-diazepine dihydrochloride (Glycyl-H 1152 dihydrochloride (H), Tocris, MO) at 5, 2.5, 1 or 0.5 μM). The medium was changed daily and one well of cells was counted at 4 and 7 days after seeding for yield and viability (FIGS. 7, A and B).

H1 cells [2] = assay: Dose titration of Rho kinase inhibitor, H1 cells on micro-carriers; format: cell-based, human
Protocol: Next a dose titration of the Rho kinase inhibitor was attempted since it has been characterized as a […]. H1 cells at passage 48 were dissociated from MATRIGEL™ (BD Biosciences, CA) coated plates with TrypLE™ Express. The cells were then seeded onto 15 cm^2 of micro-carriers into a single well of a 12 well non-tissue culture treated plate. HILLEX®II (Solohill, MI), Cytodex 1®, or Cytodex 3® (GE Healthcare Life Sciences, NJ) micro-carriers were tested with decreasing amounts of Rho kinase inhibitor: 10 μM Y27632 (Sigma-Aldrich, MO) was used on day one followed by […] on day two (Y10/5 μM); 2.5 μM Glycyl-H 1152 dihydrochloride (Tocris, MO) was used on day one followed by 0.5 μM on day two (H2.5/0.5 μM); 1 μM Glycyl-H 1152 dihydrochloride (Tocris, MO) was used on day one followed by 0.5 μM Glycyl-H 1152 dihydrochloride (Tocris, MO) on day two (H1/0.5 μM); or continuous addition of 0.25 μM Glycyl-H 1152 dihydrochloride (Tocris, MO) was applied daily in MEF-CM (H0.25 μM). H1 cells and micro-carriers were agitated every 45 minutes for 3 hours at 37° C. before being placed on a rocking platform at 37° C. Cells were counted after 3, 5 and 7 days on the rocking platform at 37° C. (FIG. 8). Overall the best concentration of Glycyl-H 1152 dihydrochloride (Tocris, MO) was 1-2.5 μM on day one and 0.5 μM on day 2 followed by withdrawal of the compound. […] Using a minimal amount of Rho-kinase inhibitor also helps reduce costs for the process and maybe beneficial to cell proliferation.

H9 cells [3] = assay: Proliferation of H9 cells on micro-carriers in defined medium; format: cell-based, human; conditions: H9 p64, StemPro, 2.5 μM, on Cytodex 3 micro-carriers
Text: To manufacture a therapeutic product, it is desirable to remove any animal components from the human embryonic stem cell culture medium. Currently human embryonic stem cells are maintained on MATRIGEL™ (BD Biosciences, CA) in medium conditioned using mouse embryonic fibroblasts (MEF-CM). Both MATRIGEL™ (BD Biosciences, CA) and MEF-CM are derived from mouse cells. Additionally, MEF-CM is an expensive and time-consuming medium to generate. To determine if human embryonic stem cells can be sustained on micro-carriers with defined medium, H9 cells were seeded onto Cytodex 3® (GE Healthcare Life Sciences, NJ) and HILLEX®II (Solohill, MI) micro-carriers in the presence of Rho kinase inhibitors, 10 μM Y27632 (Sigma-Aldrich, MO) or 2.5 μM Glycyl-H 1152 dihydrochloride (Tocris, MO) in Stem Pro (Invitrogen, CA), mTESR (StemCell Technologies, Vancouver, Canada) or MEF-CM. The cells were placed in a 12 well dish on a rocking platform at 37° C. The cells were counted at days 3, 5 and 7. […] Therefore the micro-carrier type, Rho kinase inhibitor, and medium all play a role in determining the ability of human embryonic stem cells to proliferate.

H1 cells [4] = assay: Proliferation of H1 cells on micro-carriers in defined medium; format: cell-based, human; conditions: H1 passage 38, MEF-CM
Protocol: H1 human embryonic stem cells at passage 38 were seeded onto either Cytodex 3® or HILLEX®II micro-carriers in the presence of Rho kinase inhibitors, 10 μM Y27632 (Sigma-Aldrich, MO) or 2.5 μM Glycyl-H 1152 dihydrochloride in mTESR (StemCell Technologies, Vancouver, Canada) or MEF-CM in a 12 well dish. The cells were placed on a rocking platform at 37° C. The cells were counted at days 3, 5 and 7.
Cells were incubated at 37° C. in a 10 cm^2 dish for 5 hours with agitation by hand every 45 minutes. mTESR (StemCell Technologies, Vancouver, Canada) plus 10 μM Y27632 (Sigma-Aldrich, MO) was changed every other day. This was conducted in parallel with cells grown in MEF-CM (Example 5).

[5] = tested on: H1 human embryonic stem cells; assay: Single cell passage of H1 cells from fibroblast feeders to PRIMARIA; format: cell-based; conditions: feeder free/matrix free culture on PRIMARIA, greater than 8 passages
Protocol: Method: Cells were routinely passaged by aspirating media, washing with PBS, and then treating the cells with a dissociation enzyme (collagenase, Accutase™, or TrypLE). Collagenase was used at 1 mg/ml concentration; Accutase™ or TrypLE were used at 1× stock concentration. All enzymes were used after reaching room temperature. A solution of 2% BSA in DMEM/F12 was added to each well and cells were uniformly suspended in the solution after treating the cells with enzyme. Cells were then centrifuged for 5 minutes at 200 g, the cell pellet and additional 2% BSA in DMEM/F12 solution was added to resuspend cells and the cell suspension was distributed to three 50 ml sterile conical tubes and centrifuged for 5 min at 200 g.
Using a sequential method, the fibroblast feeders were removed by high density passaging the cluster/colony style human embryonic stem cells to a Primaria surface by treating the MEF based culture with either Accutase™, TrypLE™, or collagenase. […] Cell number for cells lifted with TrypLE™ or Accutase™ was determined by counting trypan blue stained cells with a hemocytometer. […]
2nd passage: Cells were passaged at a ratio of 1 to 4 using a 10 minutes exposure to TrypLE™ or Accutase™. A shorter enzyme exposure time, which was determined empirically by treating the cells and monitoring for detachment, was also introduced. […]

H1 and H9 cells = assay: Attachment of H1 and H9 cells to micro-carrier beads in MEF-CM with 10 μM Y27632; format: cell-based, human; conditions: 10 μM in MEF-CM, static culture
Protocol: To improve the attachment and proliferation of human embryonic stem cells on micro-carriers, a small molecule inhibitor of Rho-associated coiled coil forming protein serine/threonine kinase, Rho kinase inhibitor was added to the media. Specifically, Y27632, Y, (Sigma-Aldrich, MO) was used. MEF-CM plus 10 μM Y27632 (Sigma-Aldrich, MO) was changed daily. […] By analysis of images, human embryonic stem cells grown on HILLEX®II micro-carriers (Solohill, MI) appeared to attach and proliferate better than human embryonic stem cells on other micro-carriers tested. Additionally, H9 cells attached better to HILLEX®II (Solohill, MI) in the presence of the Rho kinase inhibitor (FIG. 1A compared to 1B).
The H1 human embryonic cell line was also tested for growth on micro-carriers for large-scale expansion. Because a Rho kinase inhibitor, Y27632 (Sigma-Aldrich, MO), was necessary for attachment of the H9 cell line, it was also assumed to be necessary for H1 cells. Cytodex 1®, Cytodex 3® (GE Healthcare Life Sciences, NJ), HILLEX®II, Plastic, ProNectinF, Plastic Plus micro-carriers (SoloHill Ann Arbor, MI) were prepared according to the manufacturer's instructions. […] After 3, 5 and 7 days, one well was imaged, harvested, and counted. […] Cells were detached according to Example 4 and counted for yield.

Compound | concentration with the best attachment (day 4) (H9 cells [1]) | best concentration on day one (H1 cells [2]; H1 passage 48, MEF-CM, HILLEX II, Cytodex 1 or Cytodex 3) | best concentration on day 2 (H1 cells [2]; H1 passage 48, followed by withdrawal of the compound) | cell yield (H1 cells [2]; cells maintained in 0.25 μM continuously) | proliferation (H9 cells [3]) | growth (H1 cells [4]; 2.5 μM, on Cytodex 3) | pluripotency and differentiation capacity of culture [5] | attachment of H9 cells to micro-carriers (H1 and H9 cells) | effect of removal of the inhibitor on attachment (H1 cells [2]; H1 cells on micro-carriers) | expansion (H1 cells [4]; both micro-carrier types, 10 μM)
Cc1cncc2cccc(S(=O)(=O)N3CCCN(C(=O)CN)C[C@@H]3C)c12.Cl.Cl [Glycyl-H 1152 dihydrochloride, (S)-(+)-4-Glycyl-2-methyl-1-[(4-methyl-5-isoquinolinyl)sulfonyl]-hexahydro-1H-1,4-diazepine dihydrochloride] | 5 µM | 1 to 2.5 µM | 0.5 µM | poor cell yield | did not proliferate well | poor growth | retains pluripotency and the ability to differentiate to definitive endoderm | – | – | –
C[C@@H](N)[C@H]1CC[C@H](C(=O)Nc2ccncc2)CC1 [Y27632] | – | – | – | – | – | – | – | attached and formed aggregates with all micro-carriers tested | did not cause the H1 cells to dissociate | typical expansion characteristics
